Key:
[1] = target: KAT-7 (Homo sapiens (Human), UniProt O95251); assay: KAT-7 biochemical inhibition assay (SAMDI mass spectrometry)
In short: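 Read-out was SAMDI time-of-flight MS of formic acid-quenched reactions (0.5% final). Compound dilutions (2% DMSO final) were pre-incubated with 6 nM KAT-7 in 50 mM Tris pH 8.0 with 1 mM DTT, then given 1 μM peptide substrate and 2 μM acetyl-CoA for 120 min at 25 °C. IC50 values were derived.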

[2] = target: KAT-5 (Homo sapiens (Human), UniProt Q92993); assay: KAT-5 biochemical inhibition assay (SAMDI mass spectrometry)
Sequence of KAT-5 (Q92993 other isoform, or with tags, fused parts or gaps): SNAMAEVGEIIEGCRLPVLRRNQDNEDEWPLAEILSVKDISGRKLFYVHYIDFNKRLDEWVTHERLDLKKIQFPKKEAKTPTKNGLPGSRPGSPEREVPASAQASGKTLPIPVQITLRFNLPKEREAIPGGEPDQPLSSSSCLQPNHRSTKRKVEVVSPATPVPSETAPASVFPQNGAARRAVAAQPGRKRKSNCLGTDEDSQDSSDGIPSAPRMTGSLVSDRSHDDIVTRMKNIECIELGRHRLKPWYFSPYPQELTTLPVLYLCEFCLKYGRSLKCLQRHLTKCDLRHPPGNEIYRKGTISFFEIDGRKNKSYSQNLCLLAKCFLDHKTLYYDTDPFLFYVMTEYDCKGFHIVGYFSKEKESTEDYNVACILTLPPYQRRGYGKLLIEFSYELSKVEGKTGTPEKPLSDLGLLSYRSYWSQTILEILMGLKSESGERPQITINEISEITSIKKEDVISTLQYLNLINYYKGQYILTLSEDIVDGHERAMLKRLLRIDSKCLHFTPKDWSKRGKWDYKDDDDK
In short: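 Acetylation of 1 μM peptide by 9 nM enzyme with 0.5 μM acetyl-CoA (final) was run 90 min at 25° C in Tris pH 8.0 buffer with DTT, after compound preincubation at 2% DMSO. Formic acid stopped the reaction, and product was quantified by SAMDI mass spectrometry to derive IC50.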

[3] = target: KAT-6A (Homo sapiens (Human), UniProt Q92794); assay: KAT-6A biochemical inhibition assay (SAMDI mass spectrometry)
Sequence of KAT-6A (Q92794 other isoform, or with tags, fused parts or gaps): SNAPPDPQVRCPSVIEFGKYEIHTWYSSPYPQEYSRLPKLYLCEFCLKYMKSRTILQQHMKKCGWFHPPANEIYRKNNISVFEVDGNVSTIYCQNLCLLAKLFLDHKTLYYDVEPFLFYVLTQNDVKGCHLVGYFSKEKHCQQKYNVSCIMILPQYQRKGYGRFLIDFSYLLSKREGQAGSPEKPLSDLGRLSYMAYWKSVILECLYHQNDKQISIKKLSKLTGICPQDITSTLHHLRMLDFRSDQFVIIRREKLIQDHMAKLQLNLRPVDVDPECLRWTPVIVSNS
In short: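 IC50 values came from SAMDI time-of-flight mass spectrometry after formic acid quench (0.5% final). Acetylation ran 90 min at 25 °C with 1 μM acetyl coenzyme A and 1 μM peptide substrate, following compound pre-incubation with 12.5 nM KAT-6A in Tris buffer pH 8.0 containing DTT, 2% DMSO final.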

[4] = target: KAT-8 (Homo sapiens (Human), UniProt Q9H7Z6); assay: KAT-8 biochemical inhibition assay (SAMDI mass spectrometry)
Sequence of KAT-8 (Q9H7Z6 other isoform, or with tags, fused parts or gaps): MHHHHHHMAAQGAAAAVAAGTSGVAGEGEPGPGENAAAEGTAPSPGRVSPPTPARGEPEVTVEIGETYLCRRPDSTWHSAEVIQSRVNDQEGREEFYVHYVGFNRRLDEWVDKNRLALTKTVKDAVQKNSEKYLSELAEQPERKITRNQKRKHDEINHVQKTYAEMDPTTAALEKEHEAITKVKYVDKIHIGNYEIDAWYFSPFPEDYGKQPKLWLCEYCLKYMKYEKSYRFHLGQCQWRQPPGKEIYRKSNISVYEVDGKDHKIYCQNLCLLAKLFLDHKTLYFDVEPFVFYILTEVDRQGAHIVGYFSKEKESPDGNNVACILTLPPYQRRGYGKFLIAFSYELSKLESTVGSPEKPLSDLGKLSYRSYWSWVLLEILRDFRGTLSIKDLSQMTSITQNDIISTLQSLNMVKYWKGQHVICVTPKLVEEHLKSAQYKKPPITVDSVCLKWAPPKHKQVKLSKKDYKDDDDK
In short: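 Acetylation of 1 μM peptide substrate with 5 μM acetyl-CoA by 12.5 nM enzyme, compound pre-incubated, 2% DMSO, Tris pH 8.0 buffer with DTT, 25 °C for 90 min. Quench with 0.5% formic acid; product read by SAMDI mass spectrometry to give IC50.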

Sequence of KAT-7 (O95251 other isoform, or with tags, fused parts or gaps): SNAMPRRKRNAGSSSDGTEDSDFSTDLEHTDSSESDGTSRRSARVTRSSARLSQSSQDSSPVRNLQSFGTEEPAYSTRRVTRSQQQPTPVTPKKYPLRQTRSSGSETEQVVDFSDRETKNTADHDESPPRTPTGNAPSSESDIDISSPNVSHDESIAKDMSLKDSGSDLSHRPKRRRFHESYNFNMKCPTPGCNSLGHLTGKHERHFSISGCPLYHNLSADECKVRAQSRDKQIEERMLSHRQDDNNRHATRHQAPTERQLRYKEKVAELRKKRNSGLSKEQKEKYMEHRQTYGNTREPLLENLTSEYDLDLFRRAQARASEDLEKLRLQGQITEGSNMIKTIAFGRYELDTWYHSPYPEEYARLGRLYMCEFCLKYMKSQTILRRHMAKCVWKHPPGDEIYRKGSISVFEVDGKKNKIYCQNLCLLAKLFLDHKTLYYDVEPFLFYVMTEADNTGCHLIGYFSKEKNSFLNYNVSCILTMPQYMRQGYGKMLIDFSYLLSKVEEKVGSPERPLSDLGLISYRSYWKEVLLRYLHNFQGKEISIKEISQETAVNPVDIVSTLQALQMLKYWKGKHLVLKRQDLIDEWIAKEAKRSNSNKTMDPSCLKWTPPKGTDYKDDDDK

SMILES	IC50 [1] [µM]	IC50 [2] [µM]	IC50 [3] [µM]	IC50 [4] [µM]
CC(C)NC(=O)N1CCC(CS(=O)(=O)NNC(=O)c2cc(-c3cn(C)cn3)cc(Cl)c2F)C1 (stereo not drawn) [Compound I-198]	< 10	< 10	< 10	10 to 50
CCC(=O)NC1CCCC(CS(=O)(=O)NNC(=O)c2cc(-c3cn(C)cn3)cc(Cl)c2F)C1 (stereo not drawn) [Compound I-199]	< 10	< 10	< 10	10 to 50
Cn1cnc(-c2cc(Cl)c(F)c(C(=O)NNS(=O)(=O)C[C@H]3CC[C@@H](NC(N)=O)CC3)c2)c1 [Compound I-200]	< 10	< 10	< 10	< 10
CC(C)C(=O)N[C@H]1CC[C@H](CS(=O)(=O)NNC(=O)c2cc(-c3cn(C)cn3)cc(Cl)c2F)CC1 [Compound I-201]	< 10	< 10	< 10	10 to 50
COc1ccc(CN(C)C(=O)N2CC(CS(=O)(=O)NNC(=O)c3cc(-c4cn(C)cn4)cc(Cl)c3F)C2)cc1 [Compound I-202]	< 10	< 10	< 10	10 to 50
COc1ccc(CNC(=O)N2CC(CS(=O)(=O)NNC(=O)c3cc(-c4cn(C)cn4)cc(Cl)c3F)C2)cc1 [Compound I-203]	< 10	< 10	< 10	10 to 50
CC(C)NC(=O)N1CC(CS(=O)(=O)NNC(=O)c2cc(-c3cn(C)cn3)cc(Cl)c2F)C1 [Compound I-204]	< 10	10 to 50	10 to 50	10 to 50
Cn1cnc(-c2cc(Cl)c(F)c(C(=O)NNS(=O)(=O)CC3CCN(C(N)=O)C3)c2)c1 (stereo not drawn) [Compound I-205]	< 10	< 10	< 10	10 to 50
CC(C)C(=O)NC1CCCC(CS(=O)(=O)NNC(=O)c2cc(-c3cn(C)cn3)cc(Cl)c2F)C1 (stereo not drawn) [Compound I-206]	< 10	< 10	< 10	10 to 50
Cn1cnc(-c2cc(Cl)c(F)c(C(=O)NNS(=O)(=O)C[C@H]3C[C@H](NC(N)=O)C3)c2)c1 [Compound I-207]	< 10	10 to 50	< 10	10 to 50
Cn1cnc(-c2cc(Cl)c(F)c(C(=O)NNS(=O)(=O)CC3CN(C(N)=O)C3)c2)c1 [Compound I-208]	< 10	10 to 50	10 to 50	10 to 50
CNC(=O)N1CC[C@@H](CS(=O)(=O)NNC(=O)c2cc(-c3cn(C)cn3)cc(Cl)c2F)C1 [Compound I-209]	< 10	< 10	10 to 50	10 to 50
CNC(=O)N1CC[C@H](CS(=O)(=O)NNC(=O)c2cc(-c3cn(C)cn3)cc(Cl)c2F)C1 [Compound I-210]	< 10	< 10	10 to 50	10 to 50
Cn1cnc(-c2cc(Cl)c(F)c(C(=O)NNS(=O)(=O)C[C@H]3CC[C@H](NS(C)(=O)=O)CC3)c2)c1 [Compound I-211]	< 10	< 10	< 10	10 to 50
COCCn1cc(S(=O)(=O)NNC(=O)c2cc(-c3cn(C)cn3)cc(Cl)c2F)cn1 [Compound I-212]	< 10	10 to 50	10 to 50	10 to 50
COc1ccc(CNC(=O)N[C@H]2C[C@@H](CS(=O)(=O)NNC(=O)c3cc(-c4cn(C)cn4)cc(Cl)c3F)C2)cc1 [Compound I-213]	< 10	< 10	< 10	10 to 50
COc1ccc(CNC(=O)N2CCCC(CS(=O)(=O)NNC(=O)c3cc(-c4cn(C)cn4)cc(Cl)c3F)C2)cc1 (stereo not drawn) [Compound I-214]	< 10	< 10	< 10	10 to 50

SMILES	IC50 [1] [µM]	IC50 [2] [µM]	IC50 [3] [µM]	IC50 [4] [µM]
Cn1cnc(-c2cc(Cl)c(F)c(C(=O)NNS(=O)(=O)CC3CCCN(C(N)=O)C3)c2)c1 (stereo not drawn) [Compound I-215]	< 10	< 10	< 10	10 to 50
COCCN(Cc1ccc(OC)cc1)C(=O)N1CCCC(CS(=O)(=O)NNC(=O)c2cc(-c3cn(C)cn3)cc(Cl)c2F)C1 (stereo not drawn) [Compound I-216]	< 10	< 10	10 to 50	10 to 50
COCCNC(=O)N1CCCC(CS(=O)(=O)NNC(=O)c2cc(-c3cn(C)cn3)cc(Cl)c2F)C1 (stereo not drawn) [Compound I-217]	< 10	< 10	< 10	10 to 50
Cn1cnc(-c2cc(Cl)c(F)c(C(=O)NNS(=O)(=O)CC3CCCC(NC(=O)C4CCC4)C3)c2)c1 (stereo not drawn) [Compound I-218]	< 10	< 10	< 10	10 to 50
O=C(NNS(=O)(=O)CC1CCCCC1)c1cc(-c2cn(Cc3ncco3)cn2)cc(Cl)c1F [Compound I-219]	< 10	< 10	< 10	10 to 50
Cn1cnc(-c2cc(Cl)c(F)c(C(=O)NNS(=O)(=O)CC3CN(S(C)(=O)=O)C3)c2)c1 [Compound I-220]	< 10	10 to 50	10 to 50	10 to 50
CCC(=O)N[C@H]1CC[C@@H](CS(=O)(=O)NNC(=O)c2cc(-c3cn(C)cn3)cc(Cl)c2F)CC1 [Compound I-221]	< 10	< 10	< 10	10 to 50
CC(C)C(=O)N[C@H]1CC[C@@H](CS(=O)(=O)NNC(=O)c2cc(-c3cn(C)cn3)cc(Cl)c2F)CC1 [Compound I-222]	< 10	< 10	10 to 50	10 to 50
CN1CC(CS(=O)(=O)NNC(=O)c2cc(-c3cn(C)cn3)cc(Cl)c2F)CC1=O (stereo not drawn) [Compound I-224]	< 10	10 to 50	10 to 50	10 to 50
Cn1cnc(-c2cc(Cl)c(F)c(C(=O)NNS(=O)(=O)CC3CCCN(C(=O)NCCO)C3)c2)c1 (stereo not drawn) [Compound I-225]	< 10	< 10	< 10	10 to 50
COCc1nc(-c2cc(Cl)c(F)c(C(=O)NNS(=O)(=O)CC3CCCCC3)c2)cn1C [Compound I-226]	< 10	< 10	10 to 50	10 to 50
Cn1cnc(-c2cc(Cl)c(F)c(C(=O)NNS(=O)(=O)c3nccs3)c2)c1 [Compound I-227]	< 10	< 10	< 10	10 to 50
Cn1cnc(-c2cc(Cl)c(F)c(C(=O)NNS(=O)(=O)CC3CCN(C(=O)NCCO)C3)c2)c1 (stereo not drawn) [Compound I-228]	< 10	< 10	10 to 50	10 to 50
Cn1cnc(-c2cc(Cl)c(F)c(C(=O)NNS(=O)(=O)C[C@H]3CC[C@H](NC(=O)Cc4ccccc4)CC3)c2)c1 [Compound I-229]	< 10	< 10	< 10	10 to 50
Cn1cnc(-c2cc(Cl)c(F)c(C(=O)NNS(=O)(=O)CC3CCCC(NC(=O)c4ccccc4)C3)c2)c1 (stereo not drawn) [Compound I-230]	< 10	< 10	< 10	10 to 50
Cn1cnc(-c2cc(Cl)c(F)c(C(=O)NNS(=O)(=O)CC3CCCC(NC(=O)Cc4ccccc4)C3)c2)c1 (stereo not drawn) [Compound I-231]	< 10	< 10	< 10	10 to 50

From patent publication US11685732B2, “MYST family histone acetyltransferase inhibitors” (Epizyme, Inc., priority 2017, dated 2023)
